Measured values taken from ChEMBL document CHEMBL4052767, “Discovery of a potent angiotensin converting enzyme inhibitor via virtual screening” (Bioorg Med Chem Lett, 2017).

Biological target: Angiotensin-converting enzyme (Homo sapiens) (UniProt P12821)
Test: Inhibition of recombinant human ACE at 100 uM using Mca-R-P-PG-F-S-A-F-K(Dnp)-OH as substrate measured every 2 mins for 8 mins by fluorescence assay

Chain of Angiotensin-converting enzyme (Homo sapiens) (P12821 whole entry): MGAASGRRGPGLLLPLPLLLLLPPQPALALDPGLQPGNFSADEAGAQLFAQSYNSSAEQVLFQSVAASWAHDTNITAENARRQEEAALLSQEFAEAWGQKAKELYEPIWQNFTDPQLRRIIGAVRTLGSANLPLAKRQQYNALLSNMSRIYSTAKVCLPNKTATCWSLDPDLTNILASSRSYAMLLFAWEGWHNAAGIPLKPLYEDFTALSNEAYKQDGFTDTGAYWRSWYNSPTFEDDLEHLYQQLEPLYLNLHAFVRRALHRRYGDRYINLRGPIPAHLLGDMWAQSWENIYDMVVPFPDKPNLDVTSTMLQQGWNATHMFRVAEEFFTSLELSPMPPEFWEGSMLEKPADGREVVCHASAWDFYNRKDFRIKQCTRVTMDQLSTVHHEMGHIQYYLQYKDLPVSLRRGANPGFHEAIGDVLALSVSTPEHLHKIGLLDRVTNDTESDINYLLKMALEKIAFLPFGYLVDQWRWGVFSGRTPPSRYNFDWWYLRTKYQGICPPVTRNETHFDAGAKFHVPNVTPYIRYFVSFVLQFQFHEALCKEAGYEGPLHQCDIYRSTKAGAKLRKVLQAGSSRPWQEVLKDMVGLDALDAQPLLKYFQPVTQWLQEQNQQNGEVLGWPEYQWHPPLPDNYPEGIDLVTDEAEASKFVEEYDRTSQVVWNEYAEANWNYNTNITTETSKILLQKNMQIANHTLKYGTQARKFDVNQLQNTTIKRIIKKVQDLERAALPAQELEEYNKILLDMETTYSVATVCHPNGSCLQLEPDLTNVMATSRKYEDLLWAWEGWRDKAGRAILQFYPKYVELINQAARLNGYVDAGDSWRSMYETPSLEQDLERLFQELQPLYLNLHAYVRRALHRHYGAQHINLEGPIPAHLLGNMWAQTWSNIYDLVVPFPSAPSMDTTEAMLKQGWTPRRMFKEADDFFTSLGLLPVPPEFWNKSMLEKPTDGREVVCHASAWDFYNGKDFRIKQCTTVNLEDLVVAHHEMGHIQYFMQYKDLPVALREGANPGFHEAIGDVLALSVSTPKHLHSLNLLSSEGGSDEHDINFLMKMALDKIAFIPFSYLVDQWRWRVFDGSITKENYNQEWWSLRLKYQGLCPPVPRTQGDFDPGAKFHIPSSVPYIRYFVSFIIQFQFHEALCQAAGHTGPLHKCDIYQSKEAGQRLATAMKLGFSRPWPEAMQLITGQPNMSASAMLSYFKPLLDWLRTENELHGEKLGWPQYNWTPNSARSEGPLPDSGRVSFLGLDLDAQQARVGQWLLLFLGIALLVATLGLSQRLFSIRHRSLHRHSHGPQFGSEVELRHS

SMILES	inhibition [%]
COc1cc(C=O)ccc1O	41.5
COc1cc(O)ccc1/C=C/C(=O)c1ccc(O)cc1	72.5
OC[C@H]1O[C@@H](Oc2cc(O)cc(/C=C/c3ccc(O)cc3)c2)[C@H](O)[C@@H](O)[C@@H]1O	8.9
C[C@@H]1CC[C@H]2[C@@H](C)C(=O)O[C@@H]3O[C@@]4(C)CC[C@@H]1[C@]32OO4	17.1
COc1ccc(/C=C/c2cc(O)cc(O[C@@H]3O[C@H](CO)[C@@H](O)[C@H](O)[C@H]3O)c2)cc1O	18.2
C[C@]1(O)C[C@@H](O)[C@]2(O)C=CO[C@@H](O[C@@H]3O[C@H](CO)[C@@H](O)[C@H](O)[C@H]3O)[C@@H]21	14.8
CC[C@H]1CN2CC[C@]3(C(=O)Nc4ccccc43)[C@@H]2C[C@@H]1/C(=C\OC)C(=O)OC	10
C[C@@H]1O[C@@H](Oc2cc(O)c3c(=O)c(O)c(-c4ccc(O)cc4)oc3c2O)[C@H](O)[C@H](O)[C@H]1O	17.2
O=C(O[C@@H]1Cc2c(O)cc(O)cc2O[C@@H]1c1cc(O)c(O)c(O)c1)c1cc(O)c(O)c(O)c1	82
C=CC(C)(C)c1cc(/C=C/C(=O)c2ccc(O)cc2)c(OC)cc1O	111
